The values below come from publication PMC9964319, “Half-Sandwich Rhodium Complexes with Releasable N-Donor Monodentate Ligands: Solution Chemical Properties and the Possibility for Acidosis Activation” (Pharmaceutics, 2023).

SMILES strings stand for the structures. Converted amounts (≈) assume the structure as drawn. Where two headings read alike, the source gives them in different places.

Format in all cases: cell-based
Assay [1] deals with Colo205 human colon adenocarcinoma cell line (doxorubicin-sensitive). Briefly: MTT assay, cytotoxicity at pH 6 and 7. The note with it: Colo205, 72 h incubation, read-out: IC50. The procedure: (§1) All cell culture reagents were obtained from Sigma-Aldrich (Merck KGaA, Darmstadt, Germany) and plasticware from Sarstedt (Nümbrecht, Germany). Human colonic adenocarcinoma cell lines Colo205 (catalog number: ATCC-CCL-222) and its doxorubicin-resistant counterpart Colo320 (catalog number: ATCC-CCL-220.1) were purchased from LGC Promochem (Teddington, UK). The cells were cultured in RPMI 1640 medium supplemented with 10% heat-inactivated fetal bovine serum, 2 mM L-glutamine, 1 mM sodium pyruvate, and 100 mM HEPES buffer, adjusting the pH to 6.0 or 7.0. The cells were incubated at 37 °C in a 5% CO2–95% air atmosphere. The semiadherent human colon cancer cells were detached with Trypsin-Versene solution for 5 min at 37 °C.
(§2) The solutions were freshly prepared prior to measurements (see Section 2.1). […] Firstly, these samples were diluted in complete culture medium; then, two-fold serial dilutions of the compounds were prepared in 100 μL of RPMI 1640, horizontally. The semiadherent colonic adenocarcinoma cells were treated with Trypsin-Versene solution. They were adjusted to a density of 1 × 10^4 cells in 100 μL of RPMI 1640 medium and were added to each well, with the exception of the medium control wells. The final volume of the wells containing compounds and cells was 200 μL. Samples were triplicated. The pH of the medium was adjusted to 6.0 or 7.0.
(§3) The culture plates were incubated at 37 °C for 72 h; at the end of the incubation period, 20 μL of MTT solution (from a stock solution of 5 mg/mL) was added to each well. After incubation at 37 °C for 4 h, 100 μL of SDS solution (10% in 0.01 M HCI) was added to each well, and the plates were further incubated at 37 °C overnight. Cell growth was determined by measuring the optical density (OD) at 540/630 nm with a Multiscan EX ELISA reader (Thermo Labsystems, Cheshire, WA, USA). […] Curves were fitted using GraphPad Prism software (2022, version 9.4.1, Graphpad Software (LLC) d.b.a Dotmatics, San Diego, CA, USA) using the sigmoidal dose–response model (comparing variable and fixed slopes).
(§4) The pH-dependent solution speciation of the selected mixed-ligand complexes is an important feature in the hypothesized mechanism of action, and the modeling of acidosis is necessary for the in vitro anticancer assays. In order to find out the cytotoxicity difference based on the pH of the medium, cytotoxic activity was determined at pH 6 and 7 by MTT assay in two human colon adenocarcinoma cell lines (doxorubicin-sensitive Colo205 and doxorubicin-resistant Colo320). […] The mixed-ligand complexes were prepared prior to the measurements, as was already described in Section 2.1. With this method, the effect of the different counter ions could be avoided, and a more adequate comparison of the mixed-ligand complexes could be conducted.
(In general: Tetrazolium dyes change colour on reduction, which living cells bring about.)

Assay [2] concerns Colo320 human colon adenocarcinoma cell line (doxorubicin-resistant). In words: MTT assay, cytotoxicity at pH 6 and 7. The conditions noted are these: Colo320, 72 h incubation, read-out: IC50. The procedure:
as §1, §2, §3, §4

In a further assay the test system is S. aureus 272123 (MRSA). Briefly: Antibacterial assay, MIC in 96-well plates at different pH. The note with it: Staphylococcus aureus, 24 h. The source says:
(§5) The antibacterial effect was studied in two Gram-positive and in two Gram-negative strains. The Gram-positive S. aureus ATCC 25923 (ATCC, Manassas, VA, USA) is a methicillin-susceptible reference bacterial strain, while S. aureus 272123 is a clinical isolate and resistant to methicillin and ofloxacin (MRSA), which was given by Prof. Dr. Leonard Amaral (Institute of Hygiene and Tropical Medicine, Lisbon, Portugal). The Gram-negative strains were E. coli ATCC 25922 (ATCC, Manassas, VA, USA), which is sensitive to antibiotics, and E. coli 32313 (provided by the Institute of Clinical Microbiology, University of Szeged, Hungary), which is resistant to different antibiotics (trimethoprim/sulfamethoxazole, gentamicin, ciprofloxacin, and norfloxacin).
(§6) The minimum inhibitory concentrations (MICs) of the compounds were determined in 96-well plates based on the Clinical and Laboratory Standard Institute guidelines. The compounds were diluted in 100 μL of Mueller Hinton broth. Then, an overnight bacterial culture diluted 10,000 times in 100 μL of medium was added to each well, with the exception of the medium control wells. For each strain and each tested compound, four pH values were set (5, 6, 7, and 8). Each sample was triplicated.

Assay [3] has as its system S. aureus ATCC 25923 (methicillin-susceptible). The description is as above. The conditions noted are these: Staphylococcus aureus, ATCC25923, 24 h.
Text: as §5, §6

Assay [4] has as its system E. coli 32313 (resistant). Described as above.
Text: as §5, §6

Assay [5] deals with E. coli ATCC 25922 (sensitive). Described as above.
Text: as §5, §6

Setting [6] is: pH 5, after one day, read-out: MIC.
Setting [7] is: pH 6, after one day, read-out: MIC.
Where [8] appears, read: pH 7, after one day, read-out: MIC.
The mark [9] stands for this setting: pH 8, after one day, read-out: MIC.
Where [10] appears, read: S. aureus sensitive, pH 7, after one day, read-out: MIC.
Setting [11] is: S. aureus sensitive, pH 8, after one day, read-out: MIC.
[12] abbreviates: Escherichia coli, 24 h, E. coli resistant, pH 5, after one day, read-out: MIC.
[13] abbreviates: Escherichia coli, 24 h, E. coli resistant, pH 6, after one day, read-out: MIC.
[14] abbreviates: Escherichia coli, 24 h, E. coli resistant, pH 7, after one day, read-out: MIC.
Where [15] appears, read: Escherichia coli, 24 h, E. coli resistant, pH 8, after one day, read-out: MIC.
The mark [16] stands for this setting: Escherichia coli, ATCC25922, 24 h, E. coli sensitive, pH 5, after one day, read-out: MIC.
Where [17] appears, read: Escherichia coli, ATCC25922, 24 h, E. coli sensitive, pH 6, after one day, read-out: MIC.
Where [18] appears, read: Escherichia coli, ATCC25922, 24 h, E. coli sensitive, pH 7, after one day, read-out: MIC.
[19] abbreviates: Escherichia coli, ATCC25922, 24 h, E. coli sensitive, pH 8, after one day, read-out: MIC.

Turning to `COc1cccc2c1C(=O)c1c(O)c3c(c(O)c1C2=O)C[C@@](O)(C(=O)CO)C[C@@H]3O[C@H]1C[C@H](N)[C@H](O)[C@H](C)O1` [doxorubicin, reference compound], the IC50 (usually the concentration needed to halve the response being measured) in assay [1] (Homo sapiens, COLO 205, pH 6) was found to be 7.6 ± 0.3 µM; in assay [1] (Homo sapiens, COLO 205, pH 7), 0.71 ± 0.02 µM; in assay [2] (Homo sapiens, COLO 320, pH 6) it was 0.46 ± 0.02 µM.

For the molecule `CC1=C(C)C(C)C(C)=C1C.[Rh+3].c1ccncc1.c1cnc2c(c1)ccc1cccnc12` [[RhCp*(phen)(Py)]^2+], the IC50 in assay [1] (pH 6) was over 100 µM; in assay [1] (pH 7), over 100 µM; in assay [2] (pH 6), 83.6 ± 4.1 µM; in assay [2] (pH 7), over 100 µM.

In the case of `CC1=C(C)C(C)C(C)=C1C.Cn1ccnc1.Oc1cccc2cccnc12.[Rh+3]` [[RhCp*(8HQH−1)(mim)]^+], the IC50 in assay [1] (pH 6) amounted to 7 ± 0.4 µM; in assay [1] (pH 7), 7.2 ± 0.2 µM; in assay [2] (pH 6), 6 ± 0.1 µM; in assay [2] (pH 7), 6.1 ± 0.2 µM.

Consider `CC1=C(C)C(C)C(C)=C1C.Cn1ccnc1.[Rh+3].c1cnc2c(c1)ccc1cccnc12` [[RhCp*(phen)(mim)]^2+], for which the IC50 in assay [1] (pH 6) was over 100 µM; in assay [1] (pH 7), over 100 µM; in assay [2] (pH 6) it was 71.7 ± 3.3 µM; in assay [2] (pH 7), over 100 µM.

As for `Oc1cccc2cccnc12` [Complex 8HQ, 8-hydroxyquinoline, reference compound], the MIC – broadly, the lowest concentration that inhibits growth of the organism – against S. aureus 272123 (MRSA) (pH 5) was 100 µM; against S. aureus 272123 (MRSA) (pH 6), 6.25 µM; with S. aureus 272123 (MRSA) (pH 7) it was 6.25 µM; against S. aureus 272123 (MRSA) (pH 8), 6.25 µM; in assay [3] (pH 7), 25 µM; in assay [3] (pH 8), 25 µM. Moreover, the MIC in assay [4] (Escherichia coli, 24 h, pH 5) is over 100 µM; in assay [4] (Escherichia coli, 24 h, pH 6), over 100 µM; in assay [4] (Escherichia coli, 24 h, pH 7), over 100 µM; in assay [4] (Escherichia coli, 24 h, pH 8), over 100 µM; in assay [5] (Escherichia coli, ATCC25922, 24 h, pH 5), over 100 µM; in assay [5] (Escherichia coli, ATCC25922, 24 h, pH 6) it was over 100 µM. For the same molecule, the MIC in assay [5] (Escherichia coli, ATCC25922, 24 h, pH 7) was over 100 µM; in assay [5] (Escherichia coli, ATCC25922, 24 h, pH 8) it was over 100 µM.

For `c1cnc2c(c1)ccc1cccnc12` [phen, 1,10-phenanthroline, reference compound], the MIC was 50 µM (≈ 9.01 µg/mL) in the assay with S. aureus 272123 (MRSA) (setting [6]); over 100 µM in the assay on S. aureus 272123 (MRSA) (setting [7]); over 100 µM in the assay with S. aureus 272123 (MRSA) (setting [8]); over 100 µM in the assay on S. aureus 272123 (MRSA) (setting [9]); over 100 µM in assay [3] (setting [10]); over 100 µM in assay [3] (setting [11]). Further, the MIC in assay [4] (setting [12]), in assay [4] (setting [13]), in assay [4] (setting [14]), in assay [4] (setting [15]), in assay [5] (setting [16]) and in assay [5] (setting [17]) was 50 µM (≈ 9.01 µg/mL) each time. The MIC in assay [5] (setting [18]) turned out to be 50 µM (≈ 9.01 µg/mL); in assay [5] (setting [19]), 25 µM (≈ 4.51 µg/mL).

For the molecule `Clc1ccc(COC(Cn2ccnc2)c2ccc(Cl)cc2Cl)cc1` (stereo not drawn) [econ, econazole, reference compound], the MIC is 25 µM (≈ 9.54 µg/mL) in the assay on S. aureus 272123 (MRSA) (setting [6]); 12.5 µM (≈ 4.77 µg/mL) with S. aureus 272123 (MRSA) (setting [7]); 6.25 µM (≈ 2.39 µg/mL) with S. aureus 272123 (MRSA) (setting [8]); 3.12 µM (≈ 1.19 µg/mL) with S. aureus 272123 (MRSA) (setting [9]); 0.78 µM (≈ 0.298 µg/mL) in assay [3] (setting [10]); 0.19 µM (≈ 0.0725 µg/mL) in assay [3] (setting [11]). Moreover, the MIC in assay [4] (E. coli resistant, pH 6, after one day, read-out: MIC) was over 100 µM; in assay [4] (E. coli resistant, pH 7, after one day, read-out: MIC), over 100 µM; in assay [4] (setting [12]), over 100 µM; in assay [4] (setting [13]) it was over 100 µM; in assay [4] (setting [14]), over 100 µM; in assay [4] (setting [15]), over 100 µM. Further, the MIC in assay [5] (E. coli sensitive, pH 6, after one day, read-out: MIC) was over 100 µM; in assay [5] (E. coli sensitive, pH 7, after one day, read-out: MIC), over 100 µM; in assay [5] (setting [16]) it was over 100 µM; in assay [5] (setting [17]) it was over 100 µM; in assay [5] (setting [18]), over 100 µM; in assay [5] (setting [19]), over 100 µM.

Turning to `O=P(O)(O)C(O)(Cn1ccnc1)P(=O)(O)O` [zol, zoledronic acid, reference compound], the MIC (with S. aureus 272123 (MRSA) (setting [6]); with S. aureus 272123 (MRSA) (setting [7]); in the assay on S. aureus 272123 (MRSA) (setting [8]); in the assay on S. aureus 272123 (MRSA) (setting [9]); in assay [3] (setting [10]); in assay [3] (setting [11])) was over 100 µM each time. Moreover, the MIC in assay [4] (setting [12]), in assay [4] (setting [13]), in assay [4] (setting [14]), in assay [4] (setting [15]), in assay [5] (setting [16]) and in assay [5] (setting [17]) was over 100 µM each time. Further, the MIC in assay [5] (setting [18]) and in assay [5] (setting [19]) was over 100 µM throughout.
